Reference: patent US20210317134A1, “UBIQUITIN-SPECIFIC-PROCESSING PROTEASE 7 (USP7) MODULATORS AND USES THEREOF” (RAPT THERAPEUTICS, INC., priority 2019, published 2021)

Molecular target: USP7 (Homo sapiens, UniProt Q93009)
Test: USP7 inhibitory potency (Table 1)
Type: biochemical

Sequence of USP7 (Q93009 whole entry): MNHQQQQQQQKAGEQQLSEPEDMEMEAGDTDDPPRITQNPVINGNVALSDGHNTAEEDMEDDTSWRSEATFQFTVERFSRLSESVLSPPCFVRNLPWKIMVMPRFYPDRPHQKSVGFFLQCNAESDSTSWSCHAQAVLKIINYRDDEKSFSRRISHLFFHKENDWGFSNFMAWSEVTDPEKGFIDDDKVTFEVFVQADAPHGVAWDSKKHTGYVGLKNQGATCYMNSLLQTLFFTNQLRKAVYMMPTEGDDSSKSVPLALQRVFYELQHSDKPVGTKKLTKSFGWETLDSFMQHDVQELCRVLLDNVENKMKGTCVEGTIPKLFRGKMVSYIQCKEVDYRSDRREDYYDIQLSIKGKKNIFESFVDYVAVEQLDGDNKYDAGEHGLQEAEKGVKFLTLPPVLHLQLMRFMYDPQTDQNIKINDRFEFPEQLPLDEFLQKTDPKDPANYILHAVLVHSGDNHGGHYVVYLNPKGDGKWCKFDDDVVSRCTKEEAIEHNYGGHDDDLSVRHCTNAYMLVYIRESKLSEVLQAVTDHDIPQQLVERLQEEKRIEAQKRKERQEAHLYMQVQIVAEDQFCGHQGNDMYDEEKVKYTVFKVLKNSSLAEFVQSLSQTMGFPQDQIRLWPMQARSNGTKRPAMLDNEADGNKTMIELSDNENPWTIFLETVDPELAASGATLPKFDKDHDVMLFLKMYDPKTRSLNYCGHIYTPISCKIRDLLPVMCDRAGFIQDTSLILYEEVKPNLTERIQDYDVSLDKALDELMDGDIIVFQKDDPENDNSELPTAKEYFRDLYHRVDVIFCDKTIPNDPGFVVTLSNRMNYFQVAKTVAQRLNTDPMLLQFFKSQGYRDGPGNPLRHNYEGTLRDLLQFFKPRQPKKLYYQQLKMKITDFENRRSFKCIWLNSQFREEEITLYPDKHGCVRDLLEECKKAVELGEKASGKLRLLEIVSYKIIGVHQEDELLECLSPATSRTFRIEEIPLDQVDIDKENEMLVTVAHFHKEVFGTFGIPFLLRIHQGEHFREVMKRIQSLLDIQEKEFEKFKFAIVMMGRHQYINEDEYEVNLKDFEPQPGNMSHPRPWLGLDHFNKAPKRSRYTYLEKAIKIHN

IC50 [µM]	Structure (SMILES)
1 to 10	O=C([C@H]1Cc2cc(Cl)cc(-c3ccnc4cc(CO)sc34)c2O1)N1CCn2cnnc2C1 [(R)-(5-chloro-7-(2-(hydroxymethyl)thieno[3,2-b]pyridin-7-yl)-2,3-dihydrobenzofuran-2-yl)(5,6-dihydro-[1,2,4]triazolo[4,3-a]pyrazin-7(8H)-yl)methanone]
< 1	CCC(O)c1cc2nccc(-c3cc(Cl)cc4c3O[C@@H](c3ocnc3CN3CCNCC3)C4)c2s1 (stereo partly drawn) [1-(7-((R)-5-chloro-2-(4-(piperazin-1-ylmethyl)oxazol-5-yl)-2,3-dihydrobenzofuran-7-yl)thieno[3,2-b]pyridin-2-yl)propan-1-ol]
< 1	O=C([C@H]1Cc2cc(Cl)cc(-c3ccnc4cc(CCO)sc34)c2O1)N1CCNCC1 [(R)-(5-chloro-7-(2-(2-hydroxyethyl)thieno[3,2-b]pyridin-7-yl)-2,3-dihydrobenzofuran-2-yl)(piperazin-1-yl)methanone]
1 to 10	CN(C)C(=O)C1Cc2nccc(-c3cc(Cl)cc4c3O[C@@H](c3onc5c3CNCC5)C4)c2C1 (stereo partly drawn) [4-((R)-5-chloro-2-(4,5,6,7-tetrahydroisoxazolo[4,3-c]pyridin-3-yl)-2,3-dihydrobenzofuran-7-yl)-N,N-dimethyl-6,7-dihydro-5H-cyclopenta[b]pyridine-6-carboxamide]
< 1	O=C1NC(=O)C(c2cc3nccc(-c4cc(Cl)cc5c4O[C@@H](C(=O)N4CCNCC4)C5)c3s2)N1 (stereo partly drawn) [5-(7-((R)-5-chloro-2-(piperazine-1-carbonyl)-2,3-dihydrobenzofuran-7-yl)thieno[3,2-b]pyridin-2-yl)imidazolidine-2,4-dione]
< 1	CN(C)Cc1ncoc1[C@H]1Cc2cc(Cl)cc(-c3ccnc4ccsc34)c2O1 [(R)-1-(5-(5-chloro-7-(thieno[3,2-b]pyridin-7-yl)-2,3-dihydrobenzofuran-2-yl)oxazol-4-yl)-N,N-dimethylmethanamine]
< 1	CC(=O)NCc1cc2ncnc(-c3cc(Cl)cc4c3O[C@@H](c3onc5c3CNCC5)C4)c2s1 [(R)-N-((4-(5-chloro-2-(4,5,6,7-tetrahydroisoxazolo[4,3-c]pyridin-3-yl)-2,3-dihydrobenzofuran-7-yl)thieno[3,2-d]pyrimidin-6-yl)methyl)acetamide]
< 1	Cc1cc2ncnc(-c3cc(Cl)cc4c3O[C@@H](c3onc5c3CNCC5)C4)c2o1 [(R)-3-(5-chloro-7-(6-methylfuro[3,2-d]pyrimidin-4-yl)-2,3-dihydrobenzofuran-2-yl)-4,5,6,7-tetrahydroisoxazolo[4,3-c]pyridine]
< 1	OCc1cc2nccc(-c3cc(Cl)cc4c3O[C@@H](c3onc5c3CNCC5)CC4)c2s1 [(R)-(7-(6-chloro-2-(4,5,6,7-tetrahydroisoxazolo[4,3-c]pyridin-3-yl)chroman-8-yl)thieno[3,2-b]pyridin-2-yl)methanol]
< 1	CC(O)c1ccc2c(-c3cc(Cl)cc4c3O[C@@H](C(=O)N3CCNCC3)C4)ccnc2c1 (stereo partly drawn) [((2R)-5-chloro-7-(7-(1-hydroxyethyl)quinolin-4-yl)-2,3-dihydrobenzofuran-2-yl)(piperazin-1-yl)methanone]
1 to 10	C[C@H](O)Cc1cc2c(-c3cc(Cl)cc4c3OC(C(=O)N3CCNCC3)C4)ccnc2[nH]1 (stereo partly drawn)
10 to 30	O=C(C1Cc2cc(Cl)cc(-c3ccnc4c3ccn4Cc3ccccc3)c2O1)N1CCNCC1 (stereo not drawn) [(7-(1-Benzyl-1H-pyrrolo[2,3-b]pyridin-4-yl)-5-chloro-2,3-dihydrobenzofuran-2-yl)(piperazin-1-yl)methanone]
10 to 30	COc1ccc2nccc(-c3cc(Cl)cc4c3O[C@@H](c3onc5c3CNCC5)C4)c2c1 [(R)-3-(5-chloro-7-(6-methoxyquinolin-4-yl)-2,3-dihydrobenzofuran-2-yl)-4,5,6,7-tetrahydroisoxazolo[4,3-c]pyridine]
1 to 10	CC(=O)NC(C)(C)c1cc2nccc(-c3cc(Cl)cc4c3O[C@@H](C(=O)N3CCNCC3)C4)c2s1 [(R)-N-(2-(7-(5-chloro-2-(piperazine-1-carbonyl)-2,3-dihydrobenzofuran-7-yl)thieno[3,2-b]pyridin-2-yl)propan-2-yl)acetamide]
< 1	CC1(c2onc3c2CNCC3)Cc2cc(Cl)cc(-c3ccnc4cc(CO)sc34)c2O1 (stereo not drawn) [(7-(5-chloro-2-methyl-2-(4,5,6,7-tetrahydroisoxazolo[4,3-c]pyridin-3-yl)-2,3-dihydrobenzofuran-7-yl)thieno[3,2-b]pyridin-2-yl)methanol]
< 1	CN[C@H]1CCCN(C(=O)[C@H]2Cc3cc(Cl)cc(-c4ccnc5cc(CO)sc45)c3O2)C1 [((R)-5-chloro-7-(2-(hydroxymethyl)thieno[3,2-b]pyridin-7-yl)-2,3-dihydrobenzofuran-2-yl)((S)-3-(methylamino)piperidin-1-yl)methanone]
1 to 10	O=C(C1Cc2cc(Cl)cc(-c3ccnc4[nH]ccc34)c2O1)N1CCC(c2ccncc2)CC1 (stereo not drawn) [(5-chloro-7-(1H-pyrrolo[2,3-b]pyridin-4-yl)-2,3-dihydrobenzofuran-2-yl)(4-(pyridin-4-yl)piperidin-1-yl)methanone]

IC50 [µM]	Structure (SMILES)
< 1	O=C([C@H]1Cc2cc(Cl)cc(-c3ccnc4cc(CO)sc34)c2O1)N1CCC(N2CCCCC2)CC1 [(R)-[1,4′-bipiperidin]-1′-yl(5-chloro-7-(2-(hydroxymethyl)thieno[3,2-b]pyridin-7-yl)-2,3-dihydrobenzofuran-2-yl)methanone]
< 1	CCC(O)c1cc2nccc(-c3cc(Cl)cc4c3O[C@@H](c3onc5c3CNCC5)C4)c2o1 (stereo partly drawn) [drawing 1618, 1-(7-((R)-5-chloro-2-(4,5,6,7-tetrahydroisoxazolo[4,3-c]pyridin-3-yl)-2,3-dihydrobenzofuran-7-yl)furo[3,2-b]pyridin-2-yl)propan-1-ol]
1 to 10	OCC1(CO)Cc2nccc(-c3cc(Cl)cc4c3O[C@@H](c3onc5c3CNCC5)C4)c2C1 [(R)-(4-(5-chloro-2-(4,5,6,7-tetrahydroisoxazolo[4,3-c]pyridin-3-yl)-2,3-dihydrobenzofuran-7-yl)-6,7-dihydro-5H-cyclopenta[b]pyridine-6,6-diyl)dimethanol]
1 to 10	N#Cc1cc2nccc(-c3cc(Cl)cc4c3O[C@@H](C(=O)N3CCNCC3)C4)c2s1 [(R)-7-(5-chloro-2-(piperazine-1-carbonyl)-2,3-dihydrobenzofuran-7-yl)thieno[3,2-b]pyridine-2-carbonitrile]
< 1	CC(C)S(=O)(=O)NCCc1cc2nccc(-c3cc(Cl)cc4c3O[C@@H](C(=O)N3CCNCC3)C4)c2s1 [(R)-N-(2-(7-(5-chloro-2-(piperazine-1-carbonyl)-2,3-dihydrobenzofuran-7-yl)thieno[3,2-b]pyridin-2-yl)ethyl)propane-2-sulfonamide]
< 1	Cn1nc2c(c1[C@H]1Cc3cc(Cl)cc(-c4ccnc5cc(CN6C(=O)CCC6=O)sc45)c3O1)CNCC2 [(R)-1-((7-(5-chloro-2-(2-methyl-4,5,6,7-tetrahydro-2H-pyrazolo[4,3-c]pyridin-3-yl)-2,3-dihydrobenzofuran-7-yl)thieno[3,2-b]pyridin-2-yl)methyl)pyrrolidine-2,5-dione]
< 1	O=C([C@H]1Cc2cc(Cl)cc(-c3ccnc4cc(C(O)CCl)sc34)c2O1)N1CCNCC1 (stereo partly drawn) [((2R)-5-chloro-7-(2-(2-chloro-1-hydroxyethyl)thieno[3,2-b]pyridin-7-yl)-2,3-dihydrobenzofuran-2-yl)(piperazin-1-yl)methanone]
< 1	O=C([C@H]1Cc2cc(Cl)cc(-c3ccnc4cc(CO)sc34)c2O1)N1CCC(N2CCCC2)CC1 [(R)-(5-chloro-7-(2-(hydroxymethyl)thieno[3,2-b]pyridin-7-yl)-2,3-dihydrobenzofuran-2-yl)(4-(pyrrolidin-1-yl)piperidin-1-yl)methanone]
< 1	CC(C)N1CCc2noc([C@H]3Cc4cc(Cl)cc(-c5ccnc6ccsc56)c4O3)c2C1 [(R)-3-(5-chloro-7-(thieno[3,2-b]pyridin-7-yl)-2,3-dihydrobenzofuran-2-yl)-5-isopropyl-4,5,6,7-tetrahydroisoxazolo[4,3-c]pyridine]
< 1	CCc1cc2nccc(-c3cc(Cl)cc4c3O[C@@H](c3onc5c3CNCC5)C4)c2s1 [(R)-3-(5-chloro-7-(2-ethylthieno[3,2-b]pyridin-7-yl)-2,3-dihydrobenzofuran-2-yl)-4,5,6,7-tetrahydroisoxazolo[4,3-c]pyridine]
1 to 10	O=C(C1Cc2cc(Cl)cc(-c3ccnc4cc(C(F)(F)F)ccc34)c2O1)N1CCNCC1 (stereo not drawn) [(5-chloro-7-(7-(trifluoromethyl)quinolin-4-yl)-2,3-dihydrobenzofuran-2-yl)(piperazin-1-yl)methanone]
1 to 10	Clc1cc2c(c(-c3ncnc4cc(Cl)ccc34)c1)O[C@@H](c1onc3c1CNCC3)C2 [(R)-3-(5-chloro-7-(7-chloroquinazolin-4-yl)-2,3-dihydrobenzofuran-2-yl)-4,5,6,7-tetrahydroisoxazolo[4,3-c]pyridine]
< 1	CN1CCC(=O)N(Cc2cc3nccc(-c4cc(Cl)cc5c4O[C@@H](C(=O)N4CCNCC4)C5)c3s2)C1=O [(R)-3-((7-(5-chloro-2-(piperazine-1-carbonyl)-2,3-dihydrobenzofuran-7-yl)thieno[3,2-b]pyridin-2-yl)methyl)-1-methyldihydropyrimidine-2,4(1H,3H)-dione]
< 1	CC(=O)NCc1cc2nccc(-c3cc(Cl)cc4c3O[C@@H](c3onc5c3CNCC5)C4)c2s1 [(R)-N-((7-(5-chloro-2-(4,5,6,7-tetrahydroisoxazolo[4,3-c]pyridin-3-yl)-2,3-dihydrobenzofuran-7-yl)thieno[3,2-b]pyridin-2-yl)methyl)acetamide]
1 to 10	O=C(C1Cc2cc(Cl)cc(-c3ccnc4[nH]ccc34)c2O1)N1CCN[C@@H](CO)C1 (stereo partly drawn) [(5-chloro-7-(1H-pyrrolo[2,3-b]pyridin-4-yl)-2,3-dihydrobenzofuran-2-yl)((R)-3-(hydroxymethyl)piperazin-1-yl)methanone]
1 to 10	CS(=O)(=O)N1CCc2noc([C@H]3Cc4cc(Cl)cc(-c5ncnc6ccoc56)c4O3)c2C1 [(R)-3-(5-chloro-7-(furo[3,2-d]pyrimidin-4-yl)-2,3-dihydrobenzofuran-2-yl)-5-(methylsulfonyl)-4,5,6,7-tetrahydroisoxazolo[4,3-c]pyridine]
